Measured values from patent US9505769B2 (ASCENEURON SA, priority 2013, dated 2016).
Structures can show the parent of a compound that is named as a salt.

The compounds below were run against T1, human muscarinic acetylcholine M1 receptor (Homo sapiens, UniProt P11229) (assay: M1 PAM Assay (IP-One HTRF, IP1 accumulation in M1-CHO cells)). Settings: not given.
T1 construct: expressed in transfected cells; host or cells: CHO-K1
T1 sequence (P11229 1-460): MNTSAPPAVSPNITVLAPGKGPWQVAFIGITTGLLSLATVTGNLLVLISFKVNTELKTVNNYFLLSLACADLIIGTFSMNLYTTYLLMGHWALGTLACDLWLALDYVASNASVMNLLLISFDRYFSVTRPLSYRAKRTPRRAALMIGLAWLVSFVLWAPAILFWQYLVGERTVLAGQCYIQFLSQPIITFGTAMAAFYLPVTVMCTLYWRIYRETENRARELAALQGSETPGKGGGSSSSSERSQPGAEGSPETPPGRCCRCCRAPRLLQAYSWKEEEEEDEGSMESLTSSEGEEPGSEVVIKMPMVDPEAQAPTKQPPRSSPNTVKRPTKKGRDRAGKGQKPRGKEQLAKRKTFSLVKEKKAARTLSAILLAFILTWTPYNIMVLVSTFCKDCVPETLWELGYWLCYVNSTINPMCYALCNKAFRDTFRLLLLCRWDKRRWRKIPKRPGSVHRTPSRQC
Assay type: cell-based
Experimental: Then diluted compounds (0.6% DMSO final concentration) are added together with EC20 of acetylcholine and incubated with the cells for 30 min at 37° C., 5% CO2.
CHO-K1 cells stably transfected with human muscarinic acetylcholine M1 receptor are cultured in Ham's F12 medium containing 10% heat inactivated fetal calf serum, 2 mM L-glutamine and Penicillin-Streptomycin grown in a humidified atmosphere at 5% CO2/95% air at 37° C.

| Compound | EC50 |
| --- | --- |
| Cc1nc2c3c(nn2c(C)c1Cl)CN(C(=O)c1ccc(F)cc1OC1CC2C[C@H](O)C(C1)N2C)C3 (mixture of isomers) [Example 39, (3-chloro-2,4-dimethyl-7H-pyrrolo[3′,4′:3,4]pyrazolo[1,5-a]pyrimidin-8(9H)-yl)(4-fluoro-2-(((3-endo)-(6-exo)-6-hydroxy-8-methyl-8-azabicyclo[3.2.1]octan-3-yl)oxy)phenyl)methanone] | < 200 nM |
| CN1[C@@H]2CC[C@H]1C[C@@H](Oc1cc(F)ccc1C(=O)N1Cc3nn4cc(Cl)cnc4c3C1)C2 [Example 53, (3-chloro-7H-pyrrolo[3′,4′:3,4]pyrazolo[1,5-a]pyrimidin-8(9H)-yl)(4-fluoro-2-{[(3-endo)-8-methyl-8-azabicyclo[3.2.1]oct-3-yl]oxy}phenyl)methanone] | < 200 nM |
| CN1C2CC(Oc3cc(F)ccc3C(=O)N3Cc4nn5cc(Cl)cnc5c4C3)CC1[C@@H](O)C2 (mixture of isomers) [Example 69, (3-chloro-7H-pyrrolo[3′,4′:3,4]pyrazolo[1,5-a]pyrimidin-8(9H)-yl)(4-fluoro-2-(((3-endo)-(6-exo)-6-hydroxy-8-methyl-8-azabicyclo[3.2.1]octan-3-yl)oxy)phenyl)methanone] | < 200 nM |

Same assay, conditions: CHO-K1 cells stably transfected with human M1 receptor; compounds added with EC20 of acetylcholine (25 nM), 30 min; intracellular IP1 by IP-One HTRF; read-out: M1 PAM EC50

| Compound | EC50 |
| --- | --- |
| Cc1nc2c3c(nn2c(C)c1Cl)CN(C(=O)c1ccc(F)cc1O[C@H]1CCNC[C@@H]1F)C3 (racemic) [Example 1] | < 200 nM |
| (3-chloro-4-ethyl-2-methyl-7H-pyrrolo[3′,4′:3,4]pyrazolo[1,5-a]pyrimidin-8(9H)-yl)(2-((4-hydroxytetrahydrofuran-3-yl)oxy)phenyl)methanone or (3-chloro-2-ethyl-4-methyl-7H-pyrrolo[3′,4′:3,4]pyrazolo[1,5-a]pyrimidin-8(9H)-yl)(2-((4-hydroxytetrahydrofuran-3-yl)oxy)phenyl)methanone [Example 22] | 1000 to 3000 nM |
| CCc1nc2c3c(nn2c(C)c1Cl)CN(C(=O)c1ccccc1O[C@@H]1CCC[C@H]1O)C3 [Example 9, (anti)-(6-Chloro-5-ethyl-7-methyl-1H,3H-2,4,7a,8-tetraaza-cyclopenta[a]inden-2-yl)-[2-(2-hydroxy-cyclopentyloxy)-phenyl]-methanone or (anti)-(6-Chloro-5-methyl-7-ethyl-1H,3H-2,4,7a,8-tetraaza-cyclopenta[a]inden-2-yl)-[2-(2-hydroxy-cyclopentyloxy)-phenyl]-methanone] | 1000 to 3000 nM |
| Cc1nc2c3c(nn2c(C)c1Cl)CN(C(=O)c1ccc(F)cc1O[C@H]1CNC[C@@H]1O)C3 (racemic) [Example 27, (anti)-(6-Chloro-5,7-dimethyl-1H,3H-2,4,7a,8-tetraaza-cyclopenta[a]inden-2-yl)-[4-fluoro-2-(4-hydroxy-pyrrolidin-3-yloxy)-phenyl]-methanone] | 200 to 1000 nM |
| Cc1nc2c3c(nn2c(C)c1Cl)CN(C(=O)c1ccc(F)cc1O[C@@H]1CCN[C@@H](C)C1)C3 (stereo in doubt) [Example 24, (3-chloro-2,4-dimethyl-7H-pyrrolo[3′,4′:3,4]pyrazolo[1,5-a]pyrimidin-8(9H)-yl)(4-fluoro-2-((2-methylpiperidin-4-yl)oxy)phenyl)methanone hydrochloride] | 200 to 1000 nM |
| Cc1nc2c3c(nn2c(C)c1Cl)CN(C(=O)c1ccc(F)cc1OCCN1CCCC1)C3 [Example 16, (3-Chloro-2,4-dimethyl-7H-pyrrolo[3′,4′:3,4]pyrazolo[1,5-a]pyrimidin-8(9H)-yl)(4-fluoro-2-(2-pyrrolidinoethoxy)phenyl)methanone] | < 200 nM |
| Cc1nc2c3c(nn2c(C)c1Cl)C(CO)N(C(=O)c1ccccc1OC1CCN(C)CC1)C3 (stereo not drawn) [Example 23, (6-Chloro-1-hydroxymethyl-5,7-dimethyl-1H,3H-2,4,7a,8-tetraaza-cyclopenta[a]inden-2yl)-[2-(1-methyl-piperidin-4-yloxy)-phenyl]-methanone] | 1000 to 3000 nM |
| Cc1nc2c3c(nn2c(C)c1Cl)CN(C(=O)c1ccc(F)cc1OC1CC(N)C1)C3 (stereo not drawn) [Example 61, [2-(3-Amino-cyclobutoxy)-4-fluoro-phenyl]-(6-chloro-5,7-dimethyl-1H,3H-2,4,7a,8-tetraaza-cyclopenta[a]inden-2-yl)-methanone, hydrochloride] | < 200 nM |
| Cc1nc2c3c(nn2c(C)c1Cl)CN(C(=O)c1ccccc1C(C)N1CCNCC1)C3 (stereo not drawn) [Example 6] | 1000 to 3000 nM |

The remaining lines, values ahead:

| EC50 | Compound |
| --- | --- |
| 200 to 1000 nM | O=C(c1ccc(F)cc1OC1CCNCC1)N1Cc2nn3cc(Cl)cnc3c2C1 [Example 33, (3-chloro-7H-pyrrolo[3′,4′:3,4]pyrazolo[1,5-a]pyrimidin-8(9H)-yl)(4-fluoro-2-(piperidin-4-yloxy)phenyl)methanone hydrochloride] |
| 1000 to 3000 nM | COc1cncc(CCOc2cc(F)ccc2C(=O)N2Cc3nn4c(C)c(Cl)c(C)nc4c3C2)c1 [Example 72] |
| < 200 nM | Cc1nc2c3c(nn2c(C)c1Cl)CN(C(=O)c1ccc(F)cc1OCCc1cncc(F)c1)C3 [Example 43, (3-chloro-2,4-dimethyl-7H-pyrrolo[3′,4′:3,4]pyrazolo[1,5-a]pyrimidin-8(9H)-yl)(4-fluoro-2-(2-(5-fluoropyridin-3-yl)ethoxy)phenyl)methanone] |
| < 200 nM | Cc1nc2c3c(nn2c(C)c1Cl)CN(C(=O)c1ccc(F)cc1O[C@H]1CC[C@H](O)CC1)C3 (single isomer, unassigned) [Example 41, (anti)-(6-Chloro-5,7-dimethyl-1H,3H-2,4,7a8-tetraaza-cyclopenta[a]inden-2-yl)-[4-fluoro-2-(4-hydroxy-cyclohexyloxy)-phenyl]-methanone] |
| 200 to 1000 nM | (anti)-(6-Chloro-5-ethyl-7-methyl-1H,3H-2,4,7a,8-tetraaza-cyclopenta[a]inden-2-yl)-[2-(4-hydroxy-pyrrolidin-3-yl oxy)-phenyl]-methanone or (anti)-(6-Chloro-5-methyl-7-ethyl-1H,3H-2,4,7a,8-tetraaza-cyclopenta[a]inden-2-yl)-[2-(4-hydroxy-pyrrolidin-3-yl oxy)-phenyl]-methanone [Example 10] |
| < 200 nM | Cc1nc2c3c(nn2c(C)c1Cl)CN(C(=O)c1ccc(F)cc1OC1CCN(C(CO)CO)CC1)C3 [Example 29, (6-Chloro-5,7-dimethyl-1H,3H-2,4,7a8-tetraaza-cyclopenta[a]inden-2-y)-{4-fluoro-2-[1-(2-hydroxy-1-hydroxymethyl-ethyl)-piperidin-4-yloxy]-phenyl}-methanone] |
| 1000 to 3000 nM | CCOC(=O)N1CCC(Oc2cc(F)ccc2C(=O)N2Cc3nn4c(C)c(Cl)c(C)nc4c3C2)CC1 [Example 28, 4-[2-(6-Chloro-5,7-dimethyl-1H,3H-2,4,7a,8-tetraaza-cyclopenta[a]indene-2-carbonynl)-5-fluoro-phenoxy]-piperidine-1-carboxylic acid ethyl ester] |
| 200 to 1000 nM | Cc1nc2c3c(nn2c(C)c1Cl)CN(C(=O)c1ccc(F)cc1O[C@H]1CC[C@@H](O)CC1)C3 (single isomer, unassigned) [Example 49, (syn)-(6-Chloro-5,7-dimethyl-1H,3H-2,4,7a,8-tetraaza-cvclopenta[a]inden-2-yl)-[4-fluoro-2-(4-hydroxy-cyclohexyloxy)-phenyl]-methanone] |
| 1000 to 3000 nM | Cc1nc2c3c(nn2c(C)c1Cl)CN(C(=O)c1ccc(F)cc1OC1CN(CCF)C1)C3 [Example 46, (3-chloro-2,4-dimethyl-7H-pyrrolo[3′,4′:3,4]pyrazolo[1,5-a]pyrimidin-8(9H)-yl)(4-fluoro-2-((1-(2-fluoroethyl)azetidin-3-yl)oxy)phenyl)methanone] |
